Results: patent US20140088056A1, “CARDIAC GLYCOSIDES ARE POTENT INHIBITORS OF INTERFERON-BETA GENE EXPRESSION” (priority 2010, published 2014)

Assays:
LPS signaling = assay: LPS induced gene expression in THP-1 cells; assay type: cell-based, human; details: 1 μM
Text: Total RNA or protein were harvested for the expression analysis of specific genes by RT-PCR or Western blot.
Specifically, the inventors tested interferon (IFN), tumor necrosis factor (TNF), epidermal growth factor (EGF) signaling, and treatment with lipopolysacchoride (LPS).

293T cells [1] = assay: CellTiter-Blue and CellTiter-Glo viability assays; assay type: cell-based, human; details: 1 nM to 10 μM, 8 hours
Experimental: (§1) The cells were also exposed to 0.1% Triton X-100 for 1 hr before the viability assay as a control (FIG. 16E). Data represent mean values±s.d. (n=3). […] Cells were harvested and washed, then stained with Allophycocyanin (APC) conjugated Annexin V and 7-AAD for 15 minutes and subjected to flow cytometry analysis. The number in each graph is the percentile of Annexin V or 7-AAD positive populations. […] Total protein lysates were prepared and separated on SDS-PAGE for Western blot analysis of PARP1, cleaved PARP1, cleaved Caspase3, LC3B, ATP1a1, and beta-actin expression.
8 hours later, 20 μl of the CellTiter-Blue reagent (Promega) was added to each well and incubated for two more hours at 37° C. Fluorescence was recorded from 560 nm excitation/590 nm emission with a Spectramax Plus 384 plate reader. For CellTiter-Glo Luminescent viability assay, […] reagent (Promega) was added to each well and mixed, and incubated for 10 minutes at room temperature. Luminescence was measured with an Analyst AD plate reader.

virus = assay: Virus replication; assay type: cell-based
[2] = system: PRDIII/I element of the IFNβ promoter; assay type: cell-based, human; details: 1 uM, compared with no drug treatment
Experimental: 293T cells were transfected with the IFNβ promoter driving a firefly luciferase reporter together a reference renilla luciferase reporter plasmid. […] Firefly luciferase activities were measured after another 24 hrs and normalized to that of renilla activities. […] Experiments were conducted same as in A, but PRDIV, PRDIII/I and PRDII driving luciferase reporter plasmids were used instead.

293T cells [3] = assay: Flow cytometry analysis of apoptosis (Annexin V / 7-AAD); assay type: cell-based, human; details: bufalin 1 μM 8 hours; staurosporine 4 μM 4 hours
Experimental: as §1
Treated cells and untreated control cells were harvested and washed with PBS, and stained with APC conjugated Annexin V and 7-AAD (both from BD Biosciences) in Annexin V binding buffer (10 mM HEPES, pH 7.4, 140 mM NaCl, 2.5 mM CaCl2) for 15 minutes at room temperature, and then subjected to flow cytometry analysis on a FACSCalibur (BD Biosciences).
Cells were harvested and washed, then stained with Allophycocyanin (APC) conjugated Annexin V and 7-AAD for 15 minutes and subjected to flow cytometry analysis. […] 11 for sturosporine.

mice = assay: LPS induced lethality in mice; assay type: in vivo; details: 15 μg/mouse i.p. 30 min before LPS 80 mg/kg i.p.; 4 days
Text: The survival of injected animals was closely monitored for 4 days.

Hela and MG63 cells = assay: RT-PCR of IFNβ gene induction in Hela and MG63 cells; assay type: cell-based, human
Text: 6 hrs later, cells were harvested and RNA extracted for RT-PCR analysis for the expression of various genes.

[4] = system: cytoplasmic RNA polymerase III; assay: Re-transfection of RNA from dsDNA transfected, bufalin treated 293T cells; assay type: cell-based, human
Experimental: Total RNA from these cells were extracted and re-transfected into fresh 293T cells (8 ug for 2 million cells) for 6 hrs, the induction of IFNβ and Cxcl10 genes from these samples were analyzed by RT-PCR.
Furthermore, RIG-I can also be the target in the dsDNA activation pathway. […] This was achieved through a critical sensor: RNA polymerase III, which transcribes 5′-ppp bearing “panhandle” RNA from the dsDNA template, these nascent RNAs then activated the IFNb expression through the RIG-1-MAVS pathway. See, for example, Ablasser, A. et al. RIG-I-dependent sensing of poly(dA:dT) through the induction of an RNA polymerase III-transcribed RNA intermediate. Nat Immunol 10, 1065-72 (2009) and Chiu, Y. H., Macmillan, J. B. & Chen, Z. J. RNA polymerase III detects cytosolic DNA and induces type I interferons through the RIG-I pathway. Cell 138, 576-91 (2009), content of both of which is herein incorporated by reference.

C[C@]12CC[C@H](O)C[C@H]1CC[C@@H]1[C@H]2CC[C@]2(C)[C@@H](c3ccc(=O)oc3)CC[C@]12O [Bufalin]
LPS induction of Il-8, TNF and IKBa (LPS signaling): minimal | LPS induced expression of Cxcl10 gene (LPS signaling; LPS 20 ng/ml, 2 hours): impaired | cell viability (293T cells [1]): did not severely impair | virus replication (virus): inhibited | repression of viral induction of luciferase expression, PRDIII/I reporter [2]: > 86% | Percentile of Annexin V or 7-AAD positive populations (293T cells [3]): 1.95 | lethality induced by a high dose of LPS (mice): partially reduce | poly I:C and poly dA:dT induced IFNβ expression in Hela and Mg63 cells (Hela and MG63 cells): strongly inhibited | virus induced IFNβ expression in Hela and MG63 cells (Hela and MG63 cells): less than observed with 293T and Namalwa cells | activity of cytoplasmic RNA polymerase III [4]: inhibited
